From PubChem BioAssay (NCI)
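The compound was tested at five concentrations on cells cultured in 96-well plates, with a 48-hour exposure period. GI50 = concentration required for 50% inhibition of growth. TGI: concentration producing complete growth inhibition.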

What was measured:
Assay in all cases: NCI-60 cell line screen, 48 h
NCI-H460 lung = test system: NCI-H460 lung
NCI/ADR-RES ovarian = test system: NCI/ADR-RES ovarian
NCI-H522 lung = test system: NCI-H522 lung
OVCAR-5 ovarian = test system: OVCAR-5 ovarian
MDA-N = test system: MDA-N
UO-31 renal = test system: UO-31 renal
ACHN renal = test system: ACHN renal
KM12 colon = test system: KM12 colon
SNB-75 CNS = test system: SNB-75 CNS
HS 578T breast = test system: HS 578T breast
SK-MEL-5 melanoma = test system: SK-MEL-5 melanoma
IGROV1 ovarian = test system: IGROV1 ovarian
OVCAR-8 ovarian = test system: OVCAR-8 ovarian
HL-60(TB) leukemia = test system: HL-60(TB) leukemia
PC-3 prostate = test system: PC-3 prostate

Compound	TGI (NCI-H460 lung) [µM]	TGI (NCI/ADR-RES ovarian) [µM]	TGI (NCI-H522 lung) [µM]	TGI (OVCAR-5 ovarian) [µM]	TGI (MDA-N) [µM]	TGI (UO-31 renal) [µM]	TGI (ACHN renal) [µM]	TGI (KM12 colon) [µM]	TGI (SNB-75 CNS) [µM]	TGI (HS 578T breast) [µM]	TGI (SK-MEL-5 melanoma) [µM]	TGI (IGROV1 ovarian) [µM]	TGI (OVCAR-8 ovarian) [µM]	TGI (HL-60(TB) leukemia) [µM]	TGI (PC-3 prostate) [µM]	GI50 (NCI/ADR-RES ovarian) [µM]	GI50 (KM12 colon) [µM]	GI50 (SNB-75 CNS) [µM]	GI50 (HS 578T breast) [µM]	GI50 (IGROV1 ovarian) [µM]
CC1(C)CC(=O)/C(=C/C2CCNC2=S)C(=O)N1 (stereo not drawn)	> 100	> 100	> 100	> 100	> 100	> 100	> 100	> 100	> 100	> 100	> 100	> 100	> 100	> 100	> 100	–	–	–	–	–
Cc1cc(C)nc(NS(=O)(=O)c2ccc(NN=c3c4ccccc4n(C)c4ccccc34)cc2)n1	> 100	> 100	61.5	> 100	59.6	71.7	77.4	> 100	96.9	> 100	62.9	> 100	> 100	> 100	> 100	–	–	–	–	–
NC(=O)C(c1ccccc1)N1OC2C(=O)N(Cc3ccccc3)C(=O)C2C1c1cccc(Oc2ccc(Cl)cc2)c1 (stereo not drawn)	90.1	> 100	> 100	> 100	49.7	7.88	39.9	> 100	> 100	> 100	30.4	> 100	> 100	51.2	> 100	–	–	–	–	–
CC1CC(C)[C@H](O)C([C@H](O)CC2CC(=O)N(C)C(=O)C2)C1 (stereo partly drawn)	> 100	> 100	> 100	> 100	> 100	> 100	> 100	> 100	> 100	> 100	> 100	> 100	> 100	> 100	> 100	–	–	–	–	–
O=c1[nH]c(=O)n(C2CC(O)C(CO)O2)cc1OCCc1ccccc1 (stereo not drawn)	–	> 100	> 100	> 100	> 100	> 100	> 100	> 100	> 100	> 100	> 100	> 100	> 100	> 100	> 100	–	–	–	–	–
COc1cc(O)c2c(=O)c(OC)c(-c3ccc4c(c3)OCO4)oc2c1	> 100	> 100	> 100	> 100	> 100	> 100	> 100	> 100	14.9	> 100	98.1	> 100	> 100	> 100	> 100	–	–	–	–	–
FC(F)(F)c1nc2ccc(SSc3ccc4nc(C(F)(F)F)[nH]c4c3)cc2[nH]1	75.1	> 100	> 100	> 100	> 100	> 100	> 100	> 100	> 100	> 100	> 100	> 100	> 100	> 100	> 100	> 100	> 100	> 100	> 100	> 100
Oc1ccc(Cl)cc1-c1[nH]c(=S)nc(-c2ccccc2)c1Cl	> 100	> 100	> 31.6	> 100	> 100	> 100	> 100	> 100	70.1	> 100	> 100	> 100	> 100	> 100	> 100	–	–	–	–	–
CC1=C(C(=O)N[C@@H](Cc2ccccc2)C(=O)O)N2C(=O)[C@@H](NC(=O)[C@@H](N)CC(C)C)[C@H]2SC1	> 100	> 100	> 100	> 100	> 100	–	> 100	> 100	> 100	> 100	> 100	> 100	> 100	> 100	> 100	–	–	–	–	–
O[C@@]1(c2cccs2)c2cccc(Cl)c2[C@](O)(c2cccs2)c2cccc(Cl)c21	34.2	> 100	55.6	37.6	36.4	> 100	39.5	34	> 100	49.2	34.7	33	> 100	46.3	50.7	–	–	–	–	–
COc1cccc(/C(CC(O)(C(F)(F)F)C(F)(F)F)=N\N(C)C)c1	> 100	> 100	> 100	> 100	> 100	> 100	> 100	> 100	> 100	> 100	> 100	> 100	–	> 100	> 100	–	–	–	–	–
O=C1c2cccc3cccc(c23)C(=O)N1CCCNCCCCNCCCN1C(=O)c2cccc3cccc(c23)C1=O	–	32.3	0.0803	2.44	1.47	5.51	6.47	3.66	1.01	0.216	1.93	1.83	2.24	1.93	1.05	–	–	–	–	–
C=C[C@@H](OCOCC[Si](C)(C)C)[C@@H](CC)OC(CCCOC(=O)C(C)(C)C)OC (stereo partly drawn)	> 100	> 100	–	44.4	> 100	> 100	> 100	63	> 100	99.5	> 100	> 100	> 100	49.6	> 100	–	–	–	–	–
C[n+]1noc(/N=N\[O-])c1-c1cc(-c2c(/N=N\[O-])on[n+]2C)cc(-c2c(/N=N/[O-])on[n+]2C)c1	> 100	> 100	> 100	> 100	> 100	> 100	> 100	> 100	> 100	> 100	> 100	> 100	> 100	> 100	> 100	–	–	–	–	–
COC(=O)c1ccc(Oc2nc3ccccc3nc2-c2cccs2)cc1	> 100	> 100	> 100	> 100	> 100	> 100	> 100	> 100	26	63.3	> 100	> 100	> 100	> 100	> 100	–	–	–	–	–
CN1CCC(CNC(=O)CCCCCCCCC(=O)NCC2(c3ccccc3)CCN(C)CC2)(c2ccccc2)CC1	> 100	> 100	> 100	> 100	> 100	> 100	> 100	> 100	> 100	> 100	> 100	> 100	> 100	> 100	> 100	–	–	–	–	–
O=c1[nH]c(=O)n(C2CC(O)C(CO)O2)cc1NN=NCCc1ccccc1 (stereo not drawn)	> 100	> 100	> 100	> 100	> 100	> 100	> 100	> 100	> 100	> 100	> 100	> 100	> 100	> 100	> 100	–	–	–	–	–
CC1=NN(c2nc(N)nc(/C(C#N)=C/c3ccc([N+](=O)[O-])o3)n2)C(C)(C)C1	10.8	> 49.9	–	3.22	> 100	31.8	3.49	28.1	10.1	71.4	17	3.82	8.91	6.32	21.5	–	–	–	–	–
COc1ccc(N)c(C(O)CCNC(C)=O)c1 (stereo not drawn)	> 100	> 100	> 100	> 100	> 100	> 100	> 100	> 100	> 100	> 100	> 100	> 100	> 100	> 100	> 100	–	–	–	–	–
CCC(CS(=O)(=O)O)[N+](=O)[O-] (stereo not drawn)	> 100	> 100	> 100	> 100	> 100	> 100	> 100	> 100	> 100	> 100	> 100	> 100	> 100	> 100	> 100	–	–	–	–	–
COC(=O)C1=C(OC(=O)/C(=C/c2ccc(Cl)cc2Cl)c2ccc(Cl)cc2Cl)C(C(=O)OC)[C@@]2(O)[C@@H](C(=O)OC)[C@H](C)C[C@@H]1[C@@H]2C(=O)OC (stereo partly drawn)	> 100	> 100	> 100	> 100	> 100	> 100	> 100	> 100	> 100	> 100	> 100	> 100	> 100	> 100	> 100	–	–	–	–	–
COc1ccc(/C(CCl)=C(\Nc2ccccc2)c2ccc(OC)c(OC)c2)cc1OC	> 100	> 100	> 100	> 100	> 100	> 100	> 100	> 100	> 100	> 100	> 100	–	> 100	> 100	> 100	–	–	–	–	–
COC1(C(C)(C)C)C=C(C(C)(C)C)P(=O)(O)O1 (stereo not drawn)	> 100	> 100	> 100	> 100	> 100	–	> 100	> 100	> 100	> 100	> 100	> 100	> 100	> 100	> 100	–	–	–	–	–
COc1ccc(OC)c([N+](=O)[O-])c1-c1nc2sccn2c1/C=N/N=C(N)N	> 100	> 100	> 100	> 100	> 100	> 100	> 100	81.5	–	92.6	> 100	> 100	> 100	> 100	> 100	–	–	–	–	–
c1cc(-c2csc(-c3ccsc3)c2)cs1	> 100	> 100	–	> 100	> 100	> 100	> 100	> 100	> 100	> 100	> 100	> 100	> 100	> 100	> 100	–	–	–	–	–
OC(CC(CC(O)(C(F)(F)Cl)C(F)(F)Cl)=NNc1ccccc1)(C(F)(F)Cl)C(F)(F)Cl	7.85	8.62	> 10	> 10	7.81	–	9.12	7.54	7.69	5.93	3.45	> 10	> 10	> 10	4.7	–	–	–	–	–
C#CCn1c(=O)ccn(/C(=C\C(=O)OCC)C(=O)OCC)c1=O	7.76	33.3	–	30.9	35.1	26.4	3.08	48.8	39.9	63.5	46.1	29.8	5.42	> 100	29.4	–	–	–	–	–
COC(=O)/C=C/c1cnc2c(c1)oc(=O)n2CCc1ccccn1	> 100	> 100	–	> 100	> 100	> 100	> 100	> 100	> 100	> 100	> 100	> 100	–	9.78	> 100	–	–	–	–	–
CCOC(=O)N1CCN(c2c(C)nc(C)[nH]c2=O)CC1	> 100	> 100	> 100	–	> 100	> 100	> 100	> 100	–	> 100	> 100	> 100	> 100	> 100	> 100	–	–	–	–	–
CCCCC1Cc2ccccc2-c2n1c1ccccc1[n+]2C (stereo not drawn)	> 100	> 100	27.9	> 100	64.5	> 100	> 100	> 100	–	81.5	18	> 100	> 100	22.9	43	–	–	–	–	–
